In US20250170248A1, “SMARCA DEGRADERS AND USES THEREOF” (Kymera Therapeutics, Inc., priority 2021, published 2025):

Columns and labels:
Type in all cases: cell-based
SMARCA2 [1] = target: T1, SMARCA2 (Homo sapiens, UniProt P51531); assay: SMARCA2 Western blot degradation in MV4-11 cells; set-up: SMARCA2/SMARCA4 protein degradation selectivity in MV4-11 cells; endogenous in cells; host or cells: MV4-11; conditions: for Dmax: MV4-11, MV4-11 cells, read-out: SMARCA2 MSD MV411 degradation 24 h: average Dmax %; for DC50: read-out: SMARCA2 MSD MV411 degradation 24 h: Mean external-Abs DC50; for Selectivity in MV411: SMARCA2/4 selectivity
SMARCA4 = target: T2, SMARCA4 (Homo sapiens, UniProt P51532); assay: SMARCA4 Western blot degradation in MV4-11 cells; conditions: for Dmax: MV4-11, MV4-11 cells, read-out: SMARCA4 MSD MV411 degradation 24 h: average Dmax %; for Dmax / DC50: 24 h; for DC50: read-out: SMARCA4 MSD MV411 degradation 24 h: Mean external-Abs DC50
T2 construct: SMARCA2/SMARCA4 protein degradation selectivity in MV4-11 cells; endogenous in cells; host or cells: MV4-11
Procedure, shortened: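 24 h compound exposure, MV4-11; RIPA lysates → SDS-PAGE → NC membrane; anti-SMARCA2/BRM, anti-BRG1, β-actin loading control; LI-COR fluorescence read. DC50 and Dmax at 24 h reported as letter bins.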

SMARCA2 [2] = target: T1, SMARCA2; assay: MSD SMARCA2 degradation in A549 cell line; conditions: for Dmax: A549, A549 cells; for Dmax / DC50: 24 h; for DC50: read-out: SMARCA2 MSD A549 degradation 24 h: Average external-Abs DC50
Procedure, shortened: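 A549 cells treated 24 h with compound, 3-fold series from 1000 nM. Lysates captured on MSD plates and SMARCA2 quantified with anti-SMARCA2 and SULFO-TAG secondary antibodies (electrochemiluminescence). DC50 and Dmax (% degradation at 24 h) reported as letter bins.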

T2 sequence (P51532 whole entry): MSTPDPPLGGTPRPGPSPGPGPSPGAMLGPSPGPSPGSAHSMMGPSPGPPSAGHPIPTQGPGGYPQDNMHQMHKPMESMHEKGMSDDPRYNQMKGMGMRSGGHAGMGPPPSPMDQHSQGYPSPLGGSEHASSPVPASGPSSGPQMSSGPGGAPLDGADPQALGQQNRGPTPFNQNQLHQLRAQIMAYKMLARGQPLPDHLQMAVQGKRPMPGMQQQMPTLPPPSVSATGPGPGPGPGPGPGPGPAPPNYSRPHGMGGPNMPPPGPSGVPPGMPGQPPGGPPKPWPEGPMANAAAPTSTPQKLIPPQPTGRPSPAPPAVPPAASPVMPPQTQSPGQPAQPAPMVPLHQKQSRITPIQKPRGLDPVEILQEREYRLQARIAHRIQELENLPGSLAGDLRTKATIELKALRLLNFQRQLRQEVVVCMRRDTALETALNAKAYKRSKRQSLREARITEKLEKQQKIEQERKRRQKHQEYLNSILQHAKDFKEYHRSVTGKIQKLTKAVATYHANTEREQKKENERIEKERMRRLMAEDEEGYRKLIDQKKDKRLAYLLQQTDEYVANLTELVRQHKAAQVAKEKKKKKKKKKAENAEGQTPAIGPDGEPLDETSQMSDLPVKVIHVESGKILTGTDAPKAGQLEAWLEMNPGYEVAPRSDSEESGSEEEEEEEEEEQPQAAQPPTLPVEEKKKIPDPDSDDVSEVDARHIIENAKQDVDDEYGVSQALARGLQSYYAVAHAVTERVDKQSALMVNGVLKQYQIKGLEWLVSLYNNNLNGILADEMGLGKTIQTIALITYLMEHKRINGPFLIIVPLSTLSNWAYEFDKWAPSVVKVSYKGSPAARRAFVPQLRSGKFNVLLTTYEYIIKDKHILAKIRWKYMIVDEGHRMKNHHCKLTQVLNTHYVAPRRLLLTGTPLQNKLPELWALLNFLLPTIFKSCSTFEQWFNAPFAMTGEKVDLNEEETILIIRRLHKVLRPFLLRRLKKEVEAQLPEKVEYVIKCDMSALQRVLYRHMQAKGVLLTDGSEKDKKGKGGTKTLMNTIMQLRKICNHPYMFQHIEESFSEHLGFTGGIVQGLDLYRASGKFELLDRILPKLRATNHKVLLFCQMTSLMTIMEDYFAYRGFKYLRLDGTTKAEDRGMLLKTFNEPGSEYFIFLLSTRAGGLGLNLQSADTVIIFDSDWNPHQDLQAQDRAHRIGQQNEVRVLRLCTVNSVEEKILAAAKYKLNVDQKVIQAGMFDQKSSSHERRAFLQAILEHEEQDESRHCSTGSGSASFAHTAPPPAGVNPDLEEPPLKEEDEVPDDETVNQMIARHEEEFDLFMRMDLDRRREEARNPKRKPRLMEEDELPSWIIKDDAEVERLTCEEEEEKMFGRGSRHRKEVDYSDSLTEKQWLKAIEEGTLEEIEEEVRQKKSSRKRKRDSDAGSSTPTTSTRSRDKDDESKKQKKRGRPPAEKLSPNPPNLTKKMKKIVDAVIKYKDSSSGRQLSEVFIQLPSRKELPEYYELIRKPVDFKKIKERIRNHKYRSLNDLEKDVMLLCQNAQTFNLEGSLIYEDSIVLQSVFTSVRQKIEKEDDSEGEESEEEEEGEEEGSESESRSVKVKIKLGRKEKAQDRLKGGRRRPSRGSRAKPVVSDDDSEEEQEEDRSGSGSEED
T1 sequence (P51531 whole entry): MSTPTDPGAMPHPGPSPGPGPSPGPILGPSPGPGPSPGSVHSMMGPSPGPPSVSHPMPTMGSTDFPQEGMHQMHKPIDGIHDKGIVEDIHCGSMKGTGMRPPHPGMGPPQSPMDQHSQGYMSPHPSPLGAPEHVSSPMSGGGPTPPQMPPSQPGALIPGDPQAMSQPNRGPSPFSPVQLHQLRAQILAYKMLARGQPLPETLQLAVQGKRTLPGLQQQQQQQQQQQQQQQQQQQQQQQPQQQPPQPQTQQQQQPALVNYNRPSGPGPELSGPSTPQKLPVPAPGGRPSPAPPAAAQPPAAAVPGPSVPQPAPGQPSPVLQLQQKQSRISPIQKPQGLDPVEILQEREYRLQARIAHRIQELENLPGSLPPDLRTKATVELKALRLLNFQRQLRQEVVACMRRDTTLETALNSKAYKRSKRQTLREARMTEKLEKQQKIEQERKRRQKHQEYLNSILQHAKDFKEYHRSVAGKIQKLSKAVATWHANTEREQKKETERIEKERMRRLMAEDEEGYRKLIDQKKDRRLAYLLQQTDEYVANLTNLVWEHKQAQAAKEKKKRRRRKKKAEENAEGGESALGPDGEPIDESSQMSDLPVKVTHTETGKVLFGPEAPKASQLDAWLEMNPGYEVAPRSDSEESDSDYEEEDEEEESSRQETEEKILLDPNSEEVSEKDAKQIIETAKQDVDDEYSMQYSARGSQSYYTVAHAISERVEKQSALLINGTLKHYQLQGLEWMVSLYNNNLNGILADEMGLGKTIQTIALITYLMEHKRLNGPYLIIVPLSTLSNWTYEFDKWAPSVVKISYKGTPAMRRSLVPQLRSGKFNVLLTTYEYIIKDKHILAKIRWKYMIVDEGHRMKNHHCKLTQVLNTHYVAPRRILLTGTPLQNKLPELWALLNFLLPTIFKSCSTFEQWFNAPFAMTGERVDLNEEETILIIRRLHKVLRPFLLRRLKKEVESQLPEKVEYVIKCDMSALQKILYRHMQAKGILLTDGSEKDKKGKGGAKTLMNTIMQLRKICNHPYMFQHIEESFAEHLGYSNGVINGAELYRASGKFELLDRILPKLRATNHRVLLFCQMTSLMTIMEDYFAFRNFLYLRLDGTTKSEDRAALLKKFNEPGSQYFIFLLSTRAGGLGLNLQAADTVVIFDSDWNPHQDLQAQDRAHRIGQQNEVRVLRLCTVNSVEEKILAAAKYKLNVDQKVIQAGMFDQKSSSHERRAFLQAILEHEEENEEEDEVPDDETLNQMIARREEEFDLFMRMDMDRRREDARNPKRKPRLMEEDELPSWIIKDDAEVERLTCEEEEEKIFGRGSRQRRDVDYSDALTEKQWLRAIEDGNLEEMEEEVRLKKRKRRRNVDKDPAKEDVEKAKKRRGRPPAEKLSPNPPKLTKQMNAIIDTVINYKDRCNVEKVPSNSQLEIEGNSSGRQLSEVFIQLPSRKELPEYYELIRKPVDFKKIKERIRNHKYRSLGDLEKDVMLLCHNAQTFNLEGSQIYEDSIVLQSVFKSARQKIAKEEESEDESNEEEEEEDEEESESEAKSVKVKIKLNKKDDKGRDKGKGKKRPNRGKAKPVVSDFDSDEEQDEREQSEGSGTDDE

Structure (SMILES)	Dmax (SMARCA2 [1]; 24 h)	DC50 (SMARCA2 [1]; MV4-11 cells, 24 h)	Selectivity in MV411 (SMARCA2 [1]; MV4-11 cells)	Dmax (SMARCA4)	DC50 (SMARCA4; MV4-11 cells)	Dmax (SMARCA2 [2])	DC50 (SMARCA2 [2]; A549 cells)	SMARCA2 MSD MV411 degradation 24 h: average Dmax % (SMARCA2 [1]; MV4-11 cells, 24 h)	SMARCA4 MSD MV411 degradation 24 h: average Dmax % (SMARCA4; MV4-11 cells)	SMARCA2 MSD A549 degradation 24 h: Average Dmax % (SMARCA2 [2]; A549 cells)
Cc1ncsc1-c1ccc(CNC(=O)[C@@H]2C[C@@H](O)CN2C(=O)C(c2cc(OCCCCN3CCC(c4cnc(N5CCN6c7cc(-c8ccccc8O)nnc7NC[C@H]6C5)nc4)CC3)no2)C(C)C)cc1 (stereo partly drawn) [I-50, (2S,4R)-4-hydroxy-1-(2-(3-(4-(4-(2-((S)-2-(2-hydroxyphenyl)-6a,7,9,10-tetrahydro-5H-pyrazino[1′,2′:4,5]pyrazino[2,3-c]pyridazin-8(6H)-yl)pyrimidin-5-yl)piperidin-1-yl)butoxy)isoxazol-5-yl)-3-methylbutanoyl)-N-(4-(4-methylthiazol-5-yl)benzyl)pyrrolidine-2-carboxamide]	> 90%	< 0.001 µM	D (D (<10 fold))	> 90%	0.001 to 0.01 µM	> 90%	< 0.01 µM	–	–	–
Cc1ncsc1-c1ccc(CNC(=O)[C@@H]2C[C@@H](O)CN2C(=O)C(c2cc(OCCCCN3CCC(c4cnc(N5CCN6c7cc(-c8ccccc8O)nnc7NC[C@@H]6C5)nc4)CC3)no2)C(C)C)cc1 (stereo partly drawn) [I-51, (2S,4R)-4-hydroxy-1-(2-(3-(4-(4-(2-((R)-2-(2-hydroxyphenyl)-6a,7,9,10-tetrahydro-5H-pyrazino[1′,2′:4,5]pyrazino[2,3-c]pyridazin-8(6H)-yl)pyrimidin-5-yl)piperidin-1-yl)butoxy)isoxazol-5-yl)-3-methylbutanoyl)-N-(4-(4-methylthiazol-5-yl)benzyl)pyrrolidine-2-carboxamide]	> 90%	< 0.001 µM	D (D (<10 fold))	> 90%	0.001 to 0.01 µM	70 to 90%	0.01 to 0.05 µM	–	–	–
Cc1ncsc1-c1ccc(CNC(=O)[C@@H]2C[C@@H](O)CN2C(=O)[C@@H](NC(=O)N2CC3(CC(N4CCC(c5cnc(N6CCc7[nH]c8nnc(-c9ccccc9O)cc8c7[C@H]6C)nc5)CC4)C3)C2)C(C)(C)C)cc1 [I-58, N—((S)-1-((2S,4R)-4-hydroxy-2-((4-(4-methylthiazol-5-yl)benzyl)carbamoyl)pyrrolidin-1-yl)-3,3-dimethyl-1l-oxobutan-2-yl)-6-(4-(2-((R)-3-(2-hydroxyphenyl)-5-methyl-7,8-dihydro-5H-pyrido [3′, 4′: 4,5]pyrrolo [2,3-c]pyridazin-6(9H)-yl)pyrimidin-5-yl)piperidin-1-yl)-2-azaspiro[3.3]heptane-2-carboxamide]	70 to 90%	0.001 to 0.01 µM	B (B (>100-500 fold))	50 to 70%	> 0.1 µM	> 90%	0.01 to 0.05 µM	–	–	–
Cc1ncsc1-c1ccc(CNC(=O)[C@@H]2C[C@@H](O)CN2C(=O)[C@@H](NC(=O)N2CC3(CCC(N4CCC(c5cnc(N6CCc7[nH]c8nnc(-c9ccccc9O)cc8c7C6C)nc5)CC4)CC3)C2)C(C)(C)C)cc1 (some centres unmarked) [I-62]	< 50%	> 0.1 µM	C (C (10-100 fold))	< 50%	> 0.1 µM	70 to 90%	> 0.1 µM	–	–	–
Cc1ncsc1-c1ccc(CNC(=O)[C@@H]2C[C@@H](O)CN2C(=O)[C@@H](NC(=O)N2CC3(CC(N4CCC(c5cnc(N6CCN7c8cc(-c9ccccc9O)nnc8NC[C@H]7C6)nc5)CC4)C3)C2)C(C)(C)C)cc1 [I-64]	> 90%	0.001 to 0.01 µM	C (C (10-100 fold))	50 to 70%	0.01 to 0.1 µM	> 90%	0.01 to 0.05 µM	–	–	–
COc1cc(C(C(=O)N2C[C@H](O)C[C@H]2C(=O)NCC#Cc2ccccc2OCCCCN2CCC(c3cnc(N4CCN5c6cc(-c7ccccc7O)nnc6NC[C@H]5C4)nc3)CC2)C(C)C)on1 (some centres unmarked) [I-74]	> 90%	< 0.001 µM	C (C (10-100 fold))	> 90%	0.001 to 0.01 µM	> 90%	0.01 to 0.05 µM	–	–	–
Cc1ncsc1-c1ccc(CNC(=O)[C@@H]2C[C@@H](O)CN2C(=O)[C@@H](NC(=O)C2CC3(C2)CC(N2CCC(N4CCC(N5CCN6c7cc(-c8ccccc8O)nnc7NC[C@H]6C5)CC4)CC2)C3)C(C)(C)C)cc1 (some centres unmarked) [I-75]	70 to 90%	0.001 to 0.01 µM	A (A (>500 fold))	< 50%	> 0.1 µM	> 90%	> 0.1 µM	–	–	–
Cc1ncsc1-c1ccc(CNC(=O)[C@@H]2C[C@@H](O)CN2C(=O)[C@@H](NC(=O)[C@H]2CC3(CC[C@H](N4CCN(c5ccnc(N6CCc7[nH]c8nnc(-c9ccccc9O)cc8c7[C@H]6C)n5)CC4)CC3)C2)C(C)(C)C)cc1 (some centres unmarked) [I-80]	> 90%	< 0.001 µM	C (C (10-100 fold))	> 90%	0.001 to 0.01 µM	> 90%	< 0.01 µM	–	–	–
Cc1ncsc1-c1ccc(CNC(=O)[C@@H]2C[C@@H](O)CN2C(=O)[C@@H](NC(=O)N2CC3(CC(N4CCN(c5cnc(N6CCc7[nH]c8nnc(-c9ccccc9O)cc8c7[C@H]6C)nc5)CC4)C3)C2)C(C)(C)C)cc1 [I-82]	> 90%	0.001 to 0.01 µM	C (C (10-100 fold))	70 to 90%	0.01 to 0.1 µM	> 90%	< 0.01 µM	–	–	–
Cc1ncsc1-c1ccc(CNC(=O)[C@@H]2C[C@@H](O)CN2C(=O)[C@@H](NC(=O)[C@H]2CC[C@H](c3ccc(-c4cnc(N5CCN6c7cc(-c8ccccc8O)nnc7NC[C@H]6C5)nc4)cc3)CC2)C(C)(C)C)cc1 [I-85]	70 to 90%	0.01 to 0.1 µM	C (C (10-100 fold))	< 50%	> 0.1 µM	> 90%	0.05 to 0.1 µM	–	–	–
Cc1ncsc1-c1ccc(CNC(=O)[C@@H]2C[C@@H](O)CN2C(=O)[C@@H](NC(=O)[C@H]2CC[C@@H](c3ccc(-c4cnc(N5CCN6c7cc(-c8ccccc8O)nnc7NC[C@H]6C5)nc4)cc3)CC2)C(C)(C)C)cc1 [I-86]	> 90%	< 0.001 µM	C (C (10-100 fold))	> 90%	0.001 to 0.01 µM	> 90%	< 0.01 µM	–	–	–
C#Cc1ccc(CNC(=O)[C@@H]2C[C@@H](O)CN2C(=O)[C@@H](NC(=O)C2CCC3(CC2)CC(N2CCC(N4CCC(C(=O)N5CCN6c7cc(-c8ccccc8O)nnc7NC[C@H]6C5)CC4)CC2)C3)C(C)(C)C)cc1 (some centres unmarked) [I-89]	70 to 90%	0.001 to 0.01 µM	A (A (>500 fold))	< 50%	> 0.1 µM	> 90%	> 0.1 µM	–	–	–
C#Cc1ccc(CNC(=O)[C@@H]2C[C@@H](O)CN2C(=O)[C@@H](NC(=O)C2CCC3(CC2)CC(N2CCC(N4CC(C(=O)N5CCN6c7cc(-c8ccccc8O)nnc7NC[C@H]6C5)C4)CC2)C3)C(C)(C)C)cc1 (some centres unmarked) [I-92]	70 to 90%	0.001 to 0.01 µM	C (C (10-100 fold))	50 to 70%	> 0.1 µM	> 90%	> 0.1 µM	–	–	–
Cc1ncsc1-c1ccc(CNC(=O)[C@@H]2C[C@@H](O)CN2C(=O)[C@@H](NC(=O)[C@H]2CCC3(CC2)C[C@H](N2CCC(c4ccc(N5CCN6c7cc(-c8ccccc8O)nnc7NC[C@H]6C5)nc4)CC2)C3)C(C)(C)C)cc1 (some centres unmarked) [I-94]	–	0.001 to 0.01 µM	C (C (10-100 fold))	–	0.01 to 0.1 µM	–	0.01 to 0.05 µM	B (B (>70-90% degradation))	C (C (50-70% degradation))	A (A (>90% degradation))
C#Cc1ccc(CNC(=O)[C@@H]2C[C@@H](O)CN2C(=O)[C@@H](NC(=O)C2CCC3(CC2)CC(N2CCC(c4ccc(N5CCN6c7cc(-c8ccccc8O)nnc7NC[C@H]6C5)cc4)CC2)C3)C(C)(C)C)cc1 (some centres unmarked) [I-95]	< 50%	> 0.1 µM	C (C (10-100 fold))	< 50%	> 0.1 µM	< 50%	> 0.1 µM	–	–	–
Cc1ncsc1-c1ccc(CNC(=O)[C@@H]2C[C@@H](O)CN2C(=O)[C@@H](OC(=O)N2CC3(CC(N4CCN(c5cnc(N6CCN7c8cc(-c9ccccc9O)nnc8NC[C@H]7C6)nc5)CC4)C3)C2)C(C)(C)C)cc1 [I-96]	> 90%	< 0.001 µM	C (C (10-100 fold))	> 90%	0.001 to 0.01 µM	> 90%	< 0.01 µM	–	–	–
C#Cc1ccc(CNC(=O)[C@@H]2C[C@@H](O)CN2C(=O)[C@@H](NC(=O)N2CC3(CC(N4CCC(c5cnc(N6CCN7c8cc(-c9ccccc9O)nnc8NC[C@H]7C6)nc5)CC4)C3)C2)C(C)(C)C)cc1 [I-111]	> 90%	< 0.001 µM	C (C (10-100 fold))	> 90%	0.01 to 0.1 µM	> 90%	< 0.01 µM	–	–	–
